Laboratory results published in patent US8952162B2, “Triazolopyridines as phosphodiesterase inhibitors for treatment of dermal diseases” (Leo Pharma A/S, priority 2008, dated 2015).

target: Human recombinant PDE4 (Genbank accession no NM—006203) (Homo sapiens, UniProt Q08499); experiment: PDE4 assay (SPA, cAMP cleavage); type: biochemical; conditions: Example 53; PDE4 assay as in example 52; read-out: PDE4 IC50 range
Description: At the end of the incubation, the cleavage of the substrate was evaluated by the binding of the AMP product to SPA beads, which generate chemoluminescence when bound to the radioactive tracer. The AMP product inhibited the binding of the radioactive tracer to the beads, and the luminescent signal was competed.

Human recombinant PDE4 (Genbank accession no NM—006203), sequence (Q08499 1-673 isoform Q08499-2): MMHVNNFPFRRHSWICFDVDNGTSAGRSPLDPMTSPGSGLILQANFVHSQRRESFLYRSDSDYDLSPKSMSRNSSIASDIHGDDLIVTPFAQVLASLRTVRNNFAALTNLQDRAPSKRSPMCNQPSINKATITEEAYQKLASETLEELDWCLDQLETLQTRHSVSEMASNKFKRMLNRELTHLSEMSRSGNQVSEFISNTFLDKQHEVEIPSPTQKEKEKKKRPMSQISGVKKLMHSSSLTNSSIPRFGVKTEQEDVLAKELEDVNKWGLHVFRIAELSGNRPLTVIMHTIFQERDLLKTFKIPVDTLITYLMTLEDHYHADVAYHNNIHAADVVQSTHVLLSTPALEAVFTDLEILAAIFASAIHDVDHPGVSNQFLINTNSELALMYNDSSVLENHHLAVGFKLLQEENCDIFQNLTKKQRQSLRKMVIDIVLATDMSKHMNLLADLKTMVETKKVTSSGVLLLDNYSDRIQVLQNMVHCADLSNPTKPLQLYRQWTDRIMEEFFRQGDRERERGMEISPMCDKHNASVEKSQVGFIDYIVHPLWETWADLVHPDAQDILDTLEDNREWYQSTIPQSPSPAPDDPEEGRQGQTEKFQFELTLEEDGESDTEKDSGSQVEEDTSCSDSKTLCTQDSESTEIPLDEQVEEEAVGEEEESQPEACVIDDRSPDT

IC50, < 500 nM:
CCCNC(=O)OCC1(c2nc3c(OC)ccc(-c4cccc5c4CCC5=O)n3n2)CC1 [Compound 233, Propyl-carbamic acid 1-[8-methoxy-5-(1-oxo-indan-4-yl)-[1,2,4]triazolo[1,5-a]pyridin-2-yl]-cyclopropylmethyl ester]
COc1cc(-c2ccc(OC)c3nc(C4(COC(=O)N5CCCC5)CC4)nn23)ccc1C#N [Compound 234, Pyrrolidine-1-carboxylic acid 1-[5-(4-cyano-3-methoxy-phenyl)-8-methoxy-[1,2,4]-triazolo[1,5-a]pyridin-2-yl]-cyclopropylmethyl ester]
COc1cc(-c2ccc(OC)c3nc(C4(COC(=O)NC(C)C)CC4)nn23)ccc1C#N [Compound 235, Isopropyl-carbamic acid 1-[5-(4-cyano-3-methoxy-phenyl)-8-methoxy-[1,2,4]triazolo[1,5-a]pyridin-2-yl]-cyclopropylmethyl ester]
CCCNC(=O)OCC1(c2nc3c(OC)ccc(-c4cncc(C#N)c4)n3n2)CC1 [Compound 236, Propyl-carbamic acid 1-[5-(5-cyano-pyridin-3-yl)-8-methoxy-[1,2,4]triazolo[1,5-a]pyridin-2-yl]-cyclopropylmethyl ester]
CCCNC(=O)OCC1(c2nc3c(OC)ccc(-c4ccc(C#N)c(OC)c4)n3n2)CC1 [Compound 237, Propyl-carbamic acid 1-[5-(4-cyano-3-methoxy-phenyl)-8-methoxy-[1,2,4]triazolo[1,5-a]pyridin-2-yl]-cyclopropylmethyl ester]
COc1ccc(-c2ccc3c(c2)CCC3=O)n2nc(C3(COC(=O)N4CCCC4)CC3)nc12 [Compound 238, Pyrrolidine-1-carboxylic acid 1-[8-methoxy-5-(1-oxo-indan-5-yl)-[1,2,4]triazolo[1,5-a]pyridin-2-yl]-cyclopropylmethyl ester]
COc1ccc(-c2ccc3c(c2)CCC3=O)n2nc(C3(COC(=O)NC(C)C)CC3)nc12 [Compound 239, Isopropyl-carbamic acid 1-[8-methoxy-5-(1-oxo-indan-5-yl)-[1,2,4]triazolo[1,5-a]pyridin-2-yl]-cyclopropylmethyl ester]
COc1ccc(-c2cccc3c2CCC3=O)n2nc(C3(COC(=O)NC4CCCCC4)CC3)nc12 [Compound 240, Cyclohexyl-carbamic acid 1-[8-methoxy-5-(1-oxo-indan-4-yl)-[1,2,4]triazolo[1,5-a]pyridin-2-yl]-cyclopropylmethyl ester]
COc1cc(-c2ccc(OC)c3nc(C4(COC(=O)NC5CCCCC5)CC4)nn23)ccc1C#N [Compound 241, Cyclohexyl-carbamic acid 1-[5-(4-cyano-3-methoxy-phenyl)-8-methoxy-[1,2,4]triazolo[1,5-a]pyridin-2-yl]-cyclopropylmethyl ester]
COc1ccc(-c2cncc(C#N)c2)n2nc(C3(COC(=O)N4CCCC4)CC3)nc12 [Compound 242, Pyrrolidine-1-carboxylic acid 1-[5-(5-cyano-pyridin-3-yl)-8-methoxy-[1,2,4]triazolo[1,5-a]pyridin-2-yl]-cyclopropylmethyl ester]
COc1ccc(-c2ccc3c(c2)COC3=O)n2nc(C3(C(=O)NCCS(C)(=O)=O)CC3)nc12 [Compound 269, 1-[8-Methoxy-5-(1-oxo-1,3-dihydro-isobenzofuran-5-yl)-[1,2,4]triazolo[1,5-a]pyridin-2-yl]-cyclopropanecarboxylic acid (2-methanesulfonyl-ethyl)-amide]
COc1ccc(-c2ccc3c(c2)COC3=O)n2nc(C3(C(=O)NCC4CCCCC4)CC3)nc12 [Compound 270, 1-[8-Methoxy-5-(1-oxo-1,3-dihydro-isobenzofuran-5-yl)-[1,2,4]triazolo[1,5-a]pyridin-2-yl]-cyclopropanecarboxylic acid cyclohexylmethyl-amide]
